Assays:
hTERT = experiment: Secreted alkaline phosphatase (SEAP) assay, PhTERT-SEAP (H1299); assay type: cell-based; details: Homo sapiens, 24 hours; for activity at 1 µM: NCI-H1299, Conc. 1 μM, read-out: Relative SEAP activity (%); for activity at 10 µM: NCI-H1299, Conc. 10 μM; for activity at 10 µM / activity at 100 µM: read-out: Relative SEAP activity (%) (converted); for activity at 100 µM: NCI-H1299, Conc. 100 μM
Procedure, shortened: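 Stable H1299 clone carrying the −3338 to +1 bp hTERT promoter upstream of SEAP; ~10^4 cells/well treated with varying drug amounts for 24 h at 37° C. Media heat-treated 65° C. 10 min, mixed with diethanolamine/MgCl2/L-homoarginine buffer and 12 mM p-nitrophenyl phosphate final; SEAP activity taken as rate of A405 increase.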

CCRF-CEM = experiment: NCI drug screen, CCRF-CEM; assay type: cell-based, human; details: CCRF-CEM (Leukemia); 1.00E−5 Molar
Description: (§1) In brief, cellular protein levels were determined after 48 hours of drug exposure by sulforhodamine B colorimetry. Through the use of a time 0 cell control, the cell growth can be determined for each cell line thus allowing calculations of the 50% growth inhibitory concentration (GI50), the total growth inhibition (TGI), and the 50% lethal concentration (LC50). Comparison to plates not exposed to drug permits determination of concentration and times of exposure conferring 50% net growth inhibition (GI50), TGI, and 50% cell kill (LC50).
(§2) The screening system in United State National Cancer Institute (NCI) is consisted of 60 kinds of different human cancer cells, which can be used to assay the growth-inhibiting ability or cell toxicity of a compound against various cancer and tumor at a certain concentration.

HL-60(TB) = experiment: NCI drug screen, HL-60(TB); assay type: cell-based, human; details: HL-60(TB) (Leukemia); 1.00E−5 Molar
Description: as §1, §2

HOP-62 = experiment: NCI drug screen, HOP-62; assay type: cell-based, human; details: HOP-62 (Non-Small Cell Lung Cancer); 1.00E−5 Molar
Description: as §1, §2

NCI-H226 = experiment: NCI drug screen, NCI-H226; assay type: cell-based, human; details: NCI-H226 (Non-Small Cell Lung Cancer); 1.00E−5 Molar
Description: as §1, §2

NCI-H23 = experiment: NCI drug screen, NCI-H23; assay type: cell-based, human; details: NCI-H23 (Non-Small Cell Lung Cancer); 1.00E−5 Molar
Description: as §1, §2

NCI-H322M = experiment: NCI drug screen, NCI-H322M; assay type: cell-based, human; details: NCI-H322M (Non-Small Cell Lung Cancer); 1.00E−5 Molar
Description: as §1, §2

NCI-H522 = experiment: NCI drug screen, NCI-H522; assay type: cell-based, human; details: NCI-H522 (Non-Small Cell Lung Cancer); 1.00E−5 Molar
Description: as §1, §2

HCT-116 = experiment: NCI drug screen, HCT-116; assay type: cell-based, human; details: HCT-116 (Colon Cancer); 1.00E−5 Molar
Description: as §1, §2

HT29 = experiment: NCI drug screen, HT29; assay type: cell-based, human; details: HT29 (Colon Cancer); 1.00E−5 Molar
Description: as §1, §2

MALME-3M = experiment: NCI drug screen, MALME-3M; assay type: cell-based, human; details: MALME-3M (Melanoma); 1.00E−5 Molar
Description: as §1, §2

SK-MEL-28 = experiment: NCI drug screen, SK-MEL-28; assay type: cell-based, human; details: SK-MEL-28 (Melanoma); 1.00E−5 Molar
Description: as §1, §2

UACC-257 = experiment: NCI drug screen, UACC-257; assay type: cell-based, human; details: UACC-257 (Melanoma); 1.00E−5 Molar
Description: as §1, §2

IGROV1 = experiment: NCI drug screen, IGROV1; assay type: cell-based, human; details: IGROV1 (Ovarian Cancer); 1.00E−5 Molar
Description: as §1, §2

OVCAR-3 = experiment: NCI drug screen, OVCAR-3; assay type: cell-based, human; details: OVCAR-3 (Ovarian Cancer); 1.00E−5 Molar
Description: as §1, §2

OVCAR-8 = experiment: NCI drug screen, OVCAR-8; assay type: cell-based, human; details: OVCAR-8 (Ovarian Cancer); 1.00E−5 Molar
Description: as §1, §2

SK-OV-3 = experiment: NCI drug screen, SK-OV-3; assay type: cell-based, human; details: SK-OV-3 (Ovarian Cancer); 1.00E−5 Molar
Description: as §1, §2

786-0 = experiment: NCI drug screen, 786-0; assay type: cell-based, human; details: 786-0 (Renal Cancer); 1.00E−5 Molar
Description: as §1, §2

SN12C = experiment: NCI drug screen, SN12C; assay type: cell-based, human; details: SN12C (Renal Cancer); 1.00E−5 Molar
Description: as §1, §2

UO-31 = experiment: NCI drug screen, UO-31; assay type: cell-based, human; details: UO-31 (Renal Cancer); 1.00E−5 Molar
Description: as §1, §2

DU145 = experiment: NCI drug screen, DU145; assay type: cell-based, human; details: DU145 (Prostate Cancer); 1.00E−5 Molar
Description: as §1, §2

PC-3 = experiment: NCI drug screen, PC-3; assay type: cell-based, human; details: PC-3 (Prostate Cancer); 1.00E−5 Molar
Description: as §1, §2

MCF7 = experiment: NCI drug screen, MCF7; assay type: cell-based, human; details: MCF7 (Breast Cancer); 1.00E−5 Molar
Description: as §1, §2

HS 578-T = experiment: NCI drug screen, HS 578-T; assay type: cell-based, human; details: HS 578-T (Breast Cancer); 1.00E−5 Molar
Description: as §1, §2

BT-549 = experiment: NCI drug screen, BT-549; assay type: cell-based, human; details: BT-549 (Breast Cancer); 1.00E−5 Molar
Description: as §1, §2

NCI/ADR-RES = experiment: NCI drug screen, NCI/ADR-RES; assay type: cell-based, human; details: for Growth Percent: NCI/ADR-RES (Ovarian Cancer), 1.00E−5 Molar; for drug-resistance against adriamycin (ADR): human multiple drug-resistant cell NCI/ADR-RES
Description: as §1, §2

| SMILES | activity at 1 µM (hTERT) [%] | activity at 10 µM (hTERT) [%] | activity at 100 µM (hTERT) [%] | Growth Percent (HL-60(TB)) [%] | Growth Percent (HOP-62) [%] | Growth Percent (NCI-H226) [%] | Growth Percent (NCI-H23) [%] | Growth Percent (NCI-H322M) [%] | Growth Percent (NCI-H522) [%] | Growth Percent (HCT-116) [%] | Growth Percent (HT29) [%] | Growth Percent (MALME-3M) [%] | Growth Percent (SK-MEL-28) [%] | Growth Percent (IGROV1) [%] | Growth Percent (OVCAR-3) [%] | Growth Percent (786-0) [%] | Growth Percent (SN12C) [%] | Growth Percent (UO-31) [%] | Growth Percent (DU145) [%] | Growth Percent (MCF7) [%] | also measured |
| --- | --- | --- | --- | --- | --- | --- | --- | --- | --- | --- | --- | --- | --- | --- | --- | --- | --- | --- | --- | --- | --- |
| Cc1ccc(C(=O)Nc2ccc3c(c2NC(=O)c2ccc(C)cc2)C(=O)c2ccccc2C3=O)cc1 [CC-04, 1,2-bis-(4-methylbenzamido)-anthraquinone] | 108 ± 9.03 | 97.1 | 30.9 | 73.11 | 105.23 | 91.14 | 90.57 | 97.74 | 72.05 | 78.55 | 99.39 | 127.16 | 99.46 | 78.71 | 97.90 | 116.17 | 98.59 | 66.54 | 95.93 | 71.71 | Growth Percent (CCRF-CEM): 79.02%; Growth Percent (UACC-257): 98.46%; Growth Percent (OVCAR-8): 85.43%; Growth Percent (SK-OV-3): 109.62%; Growth Percent (PC-3): 82.91%; Growth Percent (HS 578-T): 105.96%; Growth Percent (BT-549): 95.39% |
| Cc1ccc(C(=O)Nc2c(NC(=O)CCl)ccc3c2C(=O)c2ccccc2C3=O)cc1 [CC-12, 1-(4-methylbenzamido)-2-(chloroacetamido)-anthraquinone] | 110 ± 2.99 | -2.49 | -2.47 | −46.88 | −28.62 | −25.30 | −85.89 | 95.05 | 57.88 | −54.27 | 3.37 | −22.41 | −31.94 | 51.41 | −92.86 | 11.30 | −81.02 | 42.91 | −97.56 | −79.28 | Growth Percent (OVCAR-8): 8.72%; Growth Percent (NCI/ADR-RES): 72.17%; drug-resistance against adriamycin (ADR) (NCI/ADR-RES): possessed drug-resistance against adriamycin (ADR); Growth Percent (SK-OV-3): 106.24%; Growth Percent (PC-3): 6.81%; Growth Percent (BT-549): 28.19% |
| O=C(CCl)Nc1ccc2c(c1NC(=O)Cc1ccccc1)C(=O)c1ccccc1C2=O [CC-23, 1-[2-(phenyl)acetylamino]-2-(chloroacetamido)-anthraquinone] | 84.8 ± 3.12 | 9.49 | 7.43 | 41.36 | 115.67 | 80.49 | 64.75 | 104.38 | 43.37 | 67.55 | 88.84 | 47.07 | 88.68 | 41.03 | 86.38 | 97.26 | 79.93 | 58.19 | 85.83 | 51.00 | Growth Percent (CCRF-CEM): 33.97%; Growth Percent (NCI/ADR-RES): 86.87%; drug-resistance against adriamycin (ADR) (NCI/ADR-RES): possessed drug-resistance against adriamycin (ADR); Growth Percent (HS 578-T): 66.65%; Growth Percent (BT-549): 79.78% |
| Cc1ccc(C(=O)Nc2c(NC(=O)CN3CCCC3)ccc3c2C(=O)c2ccccc2C3=O)cc1 [CC-38, 1-(4-methylbenzamido)-2-[2-(tetrahydro-1H-1-pyrrolyl)acetylamino]-anthra quinone] | 81.7 ± 4.8 | 59.1 | 3.93 | 96.11 | 113.43 | 90.22 | 73.29 | 82.50 | 103.02 | 58.46 | 31.34 | 82.24 | 92.18 | 106.07 | 77.82 | 65.15 | 74.82 | 69.24 | 91.52 | 70.79 | Growth Percent (CCRF-CEM): 39.61%; Growth Percent (UACC-257): 92.83%; Growth Percent (OVCAR-8): 65.02%; Growth Percent (NCI/ADR-RES): 50.86%; Growth Percent (SK-OV-3): 82.13%; Growth Percent (PC-3): 75.00%; Growth Percent (HS 578-T): 69.39%; Growth Percent (BT-549): 81.58% |
| Cc1ccc(C(=O)Nc2c(NC(=O)CN3CCN(C)CC3)ccc3c2C(=O)c2ccccc2C3=O)cc1 [CC-43, 1-(4-methylbenzamido)-2-[2-(4-methylpiperazino)acetylamino]-anthraquinone] | 77.4 ± 1.5 | 13.4 | 3.15 | −8.54 | 75.21 | 93.87 | 89.52 | 72.60 | 88.21 | 8.37 | 3.69 | 10.84 | −57.56 | 112.20 | −6.15 | 11.90 | 63.31 | 70.66 | 82.12 | 31.79 | Growth Percent (CCRF-CEM): 61.06%; Growth Percent (UACC-257): −50.95%; Growth Percent (OVCAR-8): 46.43%; Growth Percent (NCI/ADR-RES): 66.74%; drug-resistance against adriamycin (ADR) (NCI/ADR-RES): possessed drug-resistance against adriamycin (ADR); Growth Percent (SK-OV-3): 108.91%; Growth Percent (PC-3): 84.75%; Growth Percent (HS 578-T): 87.29%; Growth Percent (BT-549): 91.88% |
